This is an account of results in US11261175B2 (priority 2017, dated 2022).

Common to all, as to assay type: cell-based
Test [1] deals with JFH5a-Rluc-ad34 virus (HCV GT-2a). The test can be described thus: Anti-HCV activity using HCVcc (JFH5a-Rluc-ad34 virus) in Huh 7.5.1 cells, Renilla luciferase readout. As to conditions: Hepatitis C virus, GT2A, Huh-7.5.1, 72 h, read-out: HCV wt. GT-2a. The protocol:
<Experimental Example 1> Measurement of Anti-HCV Activity of Compounds of Examples Using HCVcc
Step 1: Cell Line and Cell Culture
Huh 7.5.1 cells were grown in Dulbecco's Modified Eagle's medium (DMEM; Gibco) supplemented with antibiotics (100 U/mL penicillin, 10 μg/mL streptomycin) and 10% heat-inactivated fetal bovine serum (ΔFBS; PEAK) in a CO2 incubator at 37° C. with […].
Huh7.5.1 cells were transfected with in vitro transcription RNA of JFH5a-Rluc-ad34, a derivative of JFH1 with adaptive mutations in E2 and p7 regions, by electroporation. JFH5a-Rluc-ad34 virus contains Renilla luciferase (Rluc), which is convenient for virus proliferation assay. The cell culture medium containing HCV was collected 3-5 days after the electroporation and then filtered through a […] pore size filter.
Step 3: Antiviral Activity Test Using Infectious HCV Particles
Huh 7.5.1 cells were inoculated with JFH5a-Rluc-ad34 virus and incubated for 4 hours. Four hours after the virus inoculation, the Huh7.5.1 cells infected with HCV were cultured in the medium containing the compound of examples serially diluted. Three days later, the cells were harvested and the intracellular luciferase activity was measured using Renilla luciferase assay system (Promega). Finally, the luciferase activity was normalized with those obtained from the negative control cells (mock-treated cells).

For test [2], the system named is HCV replicon S52-Feo (genotype 3a). The test can be described thus: Anti-HCV activity using HCV replicon S52-Feo (genotype 3a) in Huh 7.5.1 cells, luciferase readout. As to conditions: Hepatitis C virus, 72 h; Huh 7.5.1 cells with S52-Feo replicon, 3 days, firefly luciferase; read-out: HCV wt. GT-3a.
The subject of test [3] is HCV genotype 1b replicon with NS5A Y93H mutation. The test can be described thus: Transiently transfected assay of genotype 1b resistance mutant RNA Y93H. As to conditions: Hepatitis C virus, Huh-7.5.1, 72 h, read-out: HCV Mutation Y93H. The text has this: (§1) <Experimental Example 3> Transiently Transfected Assay of Genotype 1b Resistance Mutant RNAs
(§2) Replicon genomes substituted with Y93H, L31V and L31V+Y93H (double mutant), the resistance mutants to Daclatasvir with mutations at the NS5A protein domain 1.
(§3) These HCV resistance mutant genomes were linearized with scal restriction enzyme, and then the mutated HCV RNA was synthesized through in vitro transcription. Huh 7.5.1 cells were individually electroporated with HCV RNA with resistant mutations and plated in a 12 well plate. After 4 hours, Huh7.5.1 cells were seeded in DMEM containing the compounds of examples serially diluted for 3 days. Three days later, the cells were harvested and the intracellular luciferase activity was measured. The luciferase activity was normalized with those obtained from the negative control cells (mock-treated cells).

For test [4], the system named is HCV genotype 1b replicon with NS5A L31V mutation. Nature of the test: Transiently transfected assay of genotype 1b resistance mutant RNA L31V. The conditions noted are these: Hepatitis C virus, Huh-7.5.1, 72 h, read-out: HCV Mutation L31V.
Text: as §1, §2, §3

Test [5] deals with HCV replicon NK5.1-Gluc (genotype 1b). Nature of the test: Anti-HCV activity using HCV replicon NK5.1-Gluc (genotype 1b) in Huh 7.5.1 cells, luciferase readout. As to conditions: Hepatitis C virus, 72 h; Huh 7.5.1 cells with NK5.1-Gluc replicon, 3 days, Gaussia luciferase; read-out: HCV wt. GT-1b.
Test [6] concerns HCV genotype 1b replicon with NS5A L31V+Y93H (double mutant). The test can be described thus: Transiently transfected assay of genotype 1b resistance mutant RNA L31V+Y93H (double mutant). The conditions noted are these: Hepatitis C virus, Huh-7.5.1, 72 h, read-out: HCV Mutation L31V + Y93H.
Text: as §1, §2, §3

Each structure is given as a SMILES string.

In the case of `CCCCC1(CCCC)c2cc(NC(=O)[C@@H]3CC(F)(F)CN3C(=O)[C@H](NC(=O)OC)c3ccccc3)ccc2-c2ccc(NC(=O)[C@@H]3CC(F)(F)CN3C(=O)[C@H](NC(=O)OC)c3ccccc3)cc21` [Example 20, dimethyl ((1R,1′R)-((5S,5′S)-(((9,9-dibutyl-9H-fluorene-2,7-diyl)bis(azanediyl))bis(carbonyl))bis(3,3-difluoropyrrolidine-5,1-diyl))bis(2-oxo-1-phenylethane-2,1-diyl))dicarbamate], the EC50 in test [1] fell in the range of 1000 to 100000 pM; in test [2], 10 to 100 pM; in test [3], 1000 to 100000 pM; in test [4] it was 10 to 100 pM; in test [5], 1 to 10 pM.

With `CCCCC1(CCCC)c2cc(NC(=O)[C@@H]3C[C@@H](O)CN3C(=O)[C@H](NC(=O)OC)c3ccccc3)ccc2-c2ccc(NC(=O)[C@@H]3C[C@H](COC)CN3C(=O)[C@H](NC(=O)OC)c3ccccc3)cc21` [Example 38, methyl ((R)-2-((2S,4S)-2-((9,9-dibutyl-7-((2S,4R)-4-hydroxy-1-((R)-2-((methoxycarbonyl)amino)-2-phenylacetyl)pyrrolidine-2-carboxyamido)-9H-fluorene-2-yl)carbamoyl)-4-(methoxymethyl)pyrrolidine-1-yl)-2-oxo-1-phenylethyl)carbamate], the EC50 in test [1] is 100 to 1000 pM; in test [2] it was 10 to 100 pM; in test [3], 1 to 10 pM; in test [4], 1 to 10 pM; in test [6], 10 to 100 pM; in test [5], 10 to 100 pM.

Consider `CCCCCC1(CCCCC)c2cc(NC(=O)[C@@H]3CC4(CN3C(=O)[C@H](NC(=O)OC)c3ccccc3)OCCO4)ccc2-c2ccc(NC(=O)[C@@H]3CC4(CN3C(=O)[C@H](NC(=O)OC)c3ccccc3)OCCO4)cc21` [Example 13, dimethyl ((1R,1′R)-((8S,8′S)-(((9,9-dipentyl-9H-fluorene-2,7-diyl)bis(azanediyl))bis(carbonyl))bis(1,4-dioxa-7-azaspiro[4.4]nonane-8,7-diyl))bis(2-oxo-1-phenylethane-2,1-diyl))dicarbamate], for which the EC50 in test [1] was in the range of 1000 to 100000 pM; in test [2] it was 100 to 1000 pM; in test [3] it was 1 to 10 pM; in test [4], 1 to 10 pM; in test [6], 10 to 100 pM; in test [5], 1 to 10 pM.

Regarding `COC(=O)N[C@@H](C(=O)N1CCC[C@H]1C(=O)Nc1ccc2c(c1)C(CCCC(F)(F)F)(CCCC(F)(F)F)c1cc(NC(=O)[C@@H]3CCCN3C(=O)[C@H](NC(=O)OC)c3ccccc3)ccc1-2)c1ccccc1` [Example 4, dimethyl ((1R,1′R)-((2S,2′S)-(((9,9-bis(4,4,4-trifluorobutyl)-9H-fluorene-2,7-diyl)bis(azanediyl))bis(carbonyl))bis(pyrrolidine-2,1-diyl))bis(2-oxo-1-phenylethane-2,1-diyl))dicarbamate], the EC50 in test [1] is 1000 to 100000 pM; in test [2] it was 10 to 100 pM; in test [3], more than 100000 pM; in test [4], 100 to 1000 pM; in test [6], 1000 to 100000 pM; in test [5] it was 1 to 10 pM.

With `CCCCC1(CCCC)c2cc(NC(=O)[C@@H]3CCCN3C(=O)[C@H](NC(=O)OC)c3ccccc3)ccc2-c2ccc(NC(=O)[C@@H]3CC(=O)CN3C(=O)[C@H](NC(=O)OC)c3ccccc3)cc21` [Example 10, methyl ((R)-2-((S)-2-((9,9-dibutyl-7-((S)-1-((R)-2-((methoxycarbonyl)amino)-2-phenylacetyl)pyrrolidine-2-carboxyamido)-9H-fluorene-2-yl)carbamoyl)-4-oxopyrrolidine-1-yl)-2-oxo-1-phenylethyl)carbamate], the EC50 lay within 100 to 1000 pM in test [1]; 10 to 100 pM in test [2]; 100 to 1000 pM in test [3]; 1 to 10 pM in test [4]; 1000 to 100000 pM in test [6]; 1 to 10 pM in test [5].

In the case of `CCCCC1(CCCC)c2cc(NC(=O)[C@@H]3C[C@@H](OC)CN3C(=O)[C@H](NC(=O)OC)c3ccccc3)ccc2-c2ccc(NC(=O)[C@@H]3C[C@@H](OC)CN3C(=O)[C@H](NC(=O)OC)c3ccccc3)cc21` [Example 39, dimethyl (1R,1′R)-2,2′-((3R,3′R,5S,5′S)-5,5′-(9,9-dibutyl-9H-fluorene-2,7-diyl)bis(azanediyl)bis(oxomethylene)bis(3-methoxypyrrolidine-5,1-diyl))bis(2-oxo-1-phenylethane-2,1-diyl)dicarbamate], the EC50 in test [1] was 1000 to 100000 pM; in test [2], 100 to 1000 pM; in test [3] it was 10 to 100 pM; in test [4] it was 1 to 10 pM; in test [6], 1000 to 100000 pM; in test [5] it was 10 to 100 pM.

With `CCC1(CC)c2cc(NC(=O)[C@@H]3CCCN3C(=O)[C@H](NC(=O)OC)c3ccccc3)ccc2-c2ccc(-c3cnc([C@@H]4CCCN4C(=O)[C@@H](NC(=O)OC)C(C)C)[nH]3)cc21` [Example 8, methyl ((S)-1-((S)-2-(5-(9,9-diethyl-7-((S)-1-((R)-2-((methoxycarbonyl)amino)-2-phenylacetyl)pyrrolidine-2-carboxyamido)-9H-fluorene-2-yl)-1H-imidazole-2-yl)pyrrolidine-1-yl)-3-methyl-1-oxobutane-2-yl)carbamate], the EC50 in test [1] is 1 to 10 pM; in test [2] it was 10 to 100 pM; in test [3], 10 to 100 pM; in test [4], 10 to 100 pM; in test [6] it was 1000 to 100000 pM; in test [5], 1 to 10 pM.

On to `CCCC1(CCC)c2cc(NC(=O)[C@@H]3CC4(CN3C(=O)[C@H](NC(=O)OC)c3ccccc3)OCCO4)ccc2-c2ccc(-c3cnc([C@@H]4CCCN4C(=O)[C@@H](NC(=O)OC)C(C)C)[nH]3)cc21` [Example 27, methyl ((S)-1-((S)-2-(5-(7-((S)-7-((R)-2-((methoxycarbonyl)amino)-2-phenylacetyl)-1,4-dioxa-7-azaspiro[4.4]nonane-8-carboxyamido)-9,9-dipropyl-9H-fluorene-2-yl)-1H-imidazole-2-yl)pyrrolidine-1-yl)-3-methyl-1-oxobutane-2-yl)carbamate], for which the EC50 in test [1] fell in the range of 10 to 100 pM; in test [2] it was 10 to 100 pM; in test [3] it was 1 to 10 pM; in test [4], 1 to 10 pM; in test [6], 1000 to 100000 pM; in test [5], 1 to 10 pM.

Regarding `CCCCC1(CCCC)c2cc(NC(=O)[C@@H]3CC(F)(F)CN3C(=O)[C@H](NC(=O)OC)c3ccccc3)ccc2-c2ccc(NC(=O)[C@@H]3CC4(CC4)CN3C(=O)[C@H](NC(=O)OC)c3ccccc3)cc21` [Example 23], the EC50 is 1000 to 100000 pM in test [3], 1 to 10 pM in test [4] and more than 100000 pM in test [6].

As to `CCCCC1(CCCC)c2cc(NC(=O)[C@@H]3CC(F)(F)CN3C(=O)[C@H](NC(=O)OC)c3ccccc3)ccc2-c2ccc(NC(=O)[C@@H]3C[C@@H]4CCC[C@@H]4N3C(=O)[C@H](NC(=O)OC)c3ccccc3)cc21` [Example 24], the EC50 was in the range of 1000 to 100000 pM in test [3], 1 to 10 pM in test [4] and 1000 to 100000 pM in test [6].
